Values after ≈ are worked out from the molar mass of the structure shown. “Also recorded” adds a separate entry of the source.
Legend:
[1] = test system: uncomplicated urogenital gonorrhea; parameters: method as in recent phase III clinical trial; conditions: vs intramuscular ceftriaxone plus oral azithromycin, ref recent phase III clinical trial; cited from earlier work
[2] = target: T1, N. gonorrhoeae gyrase GyrA^A92T (Neisseria gonorrhoeae, UniProt P48371, A92T); experiment: DNA cleavage assay, GyrA^A92T gyrase; format: biochemical
T1 construct: His; made in house
T1 sequence (P48371 whole entry A92T): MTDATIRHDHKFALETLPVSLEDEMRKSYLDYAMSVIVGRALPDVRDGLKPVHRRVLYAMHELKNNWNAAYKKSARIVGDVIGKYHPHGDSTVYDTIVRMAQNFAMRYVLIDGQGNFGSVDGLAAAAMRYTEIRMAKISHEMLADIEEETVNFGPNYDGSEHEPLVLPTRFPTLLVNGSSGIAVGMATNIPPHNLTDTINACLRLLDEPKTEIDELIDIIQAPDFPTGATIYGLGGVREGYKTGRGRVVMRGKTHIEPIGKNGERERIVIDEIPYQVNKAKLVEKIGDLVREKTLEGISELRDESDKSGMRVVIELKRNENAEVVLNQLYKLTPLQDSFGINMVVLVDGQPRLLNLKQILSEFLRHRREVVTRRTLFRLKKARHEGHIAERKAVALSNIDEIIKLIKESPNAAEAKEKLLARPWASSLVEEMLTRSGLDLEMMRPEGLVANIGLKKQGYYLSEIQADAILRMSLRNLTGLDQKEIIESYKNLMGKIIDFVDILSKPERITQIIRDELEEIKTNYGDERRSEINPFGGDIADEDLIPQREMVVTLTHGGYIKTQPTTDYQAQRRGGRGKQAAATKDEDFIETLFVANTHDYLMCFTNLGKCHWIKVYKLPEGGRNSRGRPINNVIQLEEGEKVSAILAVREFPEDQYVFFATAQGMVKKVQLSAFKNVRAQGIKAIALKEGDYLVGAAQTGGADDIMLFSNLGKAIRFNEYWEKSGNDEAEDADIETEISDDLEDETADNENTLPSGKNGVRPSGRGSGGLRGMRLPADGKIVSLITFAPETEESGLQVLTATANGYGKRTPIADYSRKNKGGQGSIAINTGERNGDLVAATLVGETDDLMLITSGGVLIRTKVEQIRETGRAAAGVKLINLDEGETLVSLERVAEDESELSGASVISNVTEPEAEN
T1 sequence (P22118 whole entry partner): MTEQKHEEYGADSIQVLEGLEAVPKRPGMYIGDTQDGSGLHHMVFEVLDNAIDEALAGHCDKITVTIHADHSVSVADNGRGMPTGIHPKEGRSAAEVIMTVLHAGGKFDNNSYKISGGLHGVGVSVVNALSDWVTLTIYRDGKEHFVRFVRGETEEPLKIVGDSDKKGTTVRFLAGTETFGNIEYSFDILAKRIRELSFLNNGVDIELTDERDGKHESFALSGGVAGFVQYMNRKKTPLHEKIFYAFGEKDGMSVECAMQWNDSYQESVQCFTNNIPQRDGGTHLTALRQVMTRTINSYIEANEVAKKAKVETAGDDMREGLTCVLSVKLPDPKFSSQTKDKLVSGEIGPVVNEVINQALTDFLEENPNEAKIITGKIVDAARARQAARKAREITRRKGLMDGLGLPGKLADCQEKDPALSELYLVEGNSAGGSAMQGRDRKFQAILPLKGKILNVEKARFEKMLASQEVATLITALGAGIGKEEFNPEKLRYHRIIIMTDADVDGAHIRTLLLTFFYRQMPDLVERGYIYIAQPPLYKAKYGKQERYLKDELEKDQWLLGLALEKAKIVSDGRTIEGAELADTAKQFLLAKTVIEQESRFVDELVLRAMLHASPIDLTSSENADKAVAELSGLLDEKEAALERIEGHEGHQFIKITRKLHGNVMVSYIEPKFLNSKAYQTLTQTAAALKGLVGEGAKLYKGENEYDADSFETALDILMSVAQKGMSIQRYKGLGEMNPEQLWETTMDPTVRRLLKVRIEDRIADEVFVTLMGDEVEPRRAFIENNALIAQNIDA
Experimental: Some experiments replaced MgCl2 with an equivalent concentration of CaCl2 (10 mM), or 1.5 mM ATP was added to assay mixtures.
Reactions were incubated at 37 °C for 30 min with WT and mutant (GyrA^D90N, GyrA^A92T, GyrA^S91F, GyrA^D95G, or GyrA^S91F/D95G) N. gonorrhoeae gyrase, 10 min with WT N. gonorrhoeae topoisomerase IV, and 20 min with mutant (ParC^D86N, ParC^S88P, ParC^S87N, or ParC^E91G) N. gonorrhoeae topoisomerase IV. Enzyme-DNA cleavage complexes were trapped by adding 2 μL of 5% SDS followed by 2 μL of 250 mM EDTA (pH 8.0). Proteinase K was added (2 μL of a 0.8 mg/mL solution), and reaction mixtures were incubated at 45 °C for 30 min to digest the enzyme. Samples were mixed with 2 μL of loading buffer and heated at 45 °C for 2 min prior to electrophoresis in 1% agarose gels in 40 mM Tris-acetate (pH 8.3), and 2 mM EDTA containing 0.5 μg/mL ethidium bromide. DNA bands were visualized by midrange ultraviolet light and quantified using an Alpha Innotech digital imaging system (Protein Simple). Single-stranded DNA cleavage was monitored by the conversion of negatively supercoiled to nicked plasmid molecules.

[3] = test system: N. gonorrhoeae FA1090E-2 (GyrA^WT/ParC^D86N); experiment: MIC by agar dilution, ParC^D86N strain; format: cell-based; conditions: Neisseria gonorrhoeae
Experimental: Mutations in these efflux genes can result in increased efflux to multiple antibiotics. […] Parental and isogenic mutant strains generated that carried the efflux mutations mtrR-79 and norM ΔT T6 were designated as FA1090E (E for efflux positive). Only the additional GyrA and ParC genotypes are described in Table and in the text. The mutant that additionally expressed ParC^D86N was named FA1090E-2.
Minimum inhibitory concentration (MIC) of test compounds was determined by an agar dilution method, the reference testing method for N. gonorrhoeae according to the standards of the Clinical and Laboratory Standards Institute and the CDC.

[4] = test system: N. gonorrhoeae FA1090 (ATCC 700825); experiment: MIC by agar dilution, parental strain FA1090; format: cell-based; conditions: Neisseria gonorrhoeae, ATCC700825, parental strain FA1090, GyrA WT / ParC WT
Experimental: A series of isogenic N. gonorrhoeae strains was constructed that carried the specific target mutations GyrA^A92T or GyrA^D90N either alone or in combination with ParC^D86N or GyrA^S91F/D95G in a ciprofloxacin-susceptible strain, FA1090 (ATCC 700825).
All N. gonorrhoeae isolates were cultured and grown on GC agar plates or in fastidious broth (Remel, 07664). Minimum inhibitory concentration (MIC) of test compounds was determined by an agar dilution method, the reference testing method for N. gonorrhoeae according to the standards of the Clinical and Laboratory Standards Institute and the CDC. MIC values were determined after incubation at 37 °C for 48 h in 5% CO2.

[5] = target: T2, WT N. gonorrhoeae topoisomerase IV (Neisseria gonorrhoeae, UniProt P48374); experiment: Topoisomerase IV-catalyzed DNA decatenation assay, WT; format: biochemical; parameters: His; made in house
T2 sequence (P48374 1-768): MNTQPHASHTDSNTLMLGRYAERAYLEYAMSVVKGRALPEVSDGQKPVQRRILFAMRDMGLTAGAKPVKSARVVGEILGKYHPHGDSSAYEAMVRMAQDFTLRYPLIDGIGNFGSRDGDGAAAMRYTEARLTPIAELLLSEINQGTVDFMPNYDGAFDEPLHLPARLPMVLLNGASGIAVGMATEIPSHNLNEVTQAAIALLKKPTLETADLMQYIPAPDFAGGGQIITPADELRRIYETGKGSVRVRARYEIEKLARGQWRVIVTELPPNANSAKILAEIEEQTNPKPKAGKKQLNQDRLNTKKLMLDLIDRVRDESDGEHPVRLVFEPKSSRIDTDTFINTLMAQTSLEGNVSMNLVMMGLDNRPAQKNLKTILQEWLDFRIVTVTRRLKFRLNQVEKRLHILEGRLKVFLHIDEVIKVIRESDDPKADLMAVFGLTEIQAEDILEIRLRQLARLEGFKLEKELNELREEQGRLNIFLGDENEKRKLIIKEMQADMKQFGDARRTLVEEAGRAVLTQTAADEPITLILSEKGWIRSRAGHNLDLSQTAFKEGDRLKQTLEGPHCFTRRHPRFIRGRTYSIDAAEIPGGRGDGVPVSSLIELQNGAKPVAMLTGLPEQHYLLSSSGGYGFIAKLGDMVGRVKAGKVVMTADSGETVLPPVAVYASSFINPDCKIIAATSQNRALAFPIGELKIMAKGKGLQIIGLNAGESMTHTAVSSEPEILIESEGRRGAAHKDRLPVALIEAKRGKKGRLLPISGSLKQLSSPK
Experimental: All proteins were His-tagged. N. gonorrhoeae WT gyrase (GyrA, GyrB) and topoisomerase IV (ParC, ParE) subunits as well as mutant GyrA^D90N, GyrA^A92T, GyrA^S91F, and GyrA^S91F/D95G gyrase and ParC^D86N and ParC^S88P topoisomerase IV were prepared as described previously. , N. gonorrhoeae mutant GyrA^D95G gyrase and mutant ParC^S87N and ParC^E91G topoisomerase IV were generated using a QuickChange II XL site-directed mutagenesis kit (Agilent Technologies) with custom primers for the desired mutations. Mutant N. gonorrhoeae GyrA and ParC subunits were expressed and purified as described by Ashley et al. with the following modifications to optimize protein expression and lysis: (1) GyrA^D95G was expressed for 2.5 h and ParC^S87N and ParC^E91G were expressed for 3 h before harvesting, and (2) cells were lysed by sonication using a digital sonifier (Branson). The identities of all constructs were confirmed by DNA sequencing, and all enzymes were stored at −80 °C. In all assays, N. gonorrhoeae gyrase or topoisomerase IV was used as a 1:1 GyrA:GyrB or ParC:ParE mixture, respectively, and the stated enzyme concentration reflects that of the holoenzyme (A2B2). […]

O=c1ccc2ncc(=O)n3c2n1C[C@H]3CN1CCC(NCc2cc3c(cn2)OCCC3)CC1 [gepotidacin]
outcome of phase III clinical trial [1]: met its primary efficacy end point; also recorded: noninferiority
Adj-Max Cleavage, single-stranded DNA breaks [2]: 4.9%
EC50 ([2]; GyrA A92T gyrase, read-out: CC50, single-stranded DNA cleavage): 0.5 µM
fold decrease of adjusted maximal DNA cleavage vs WT ([2]; GyrA A92T vs WT): ~3.5 fold
MIC [3]: 0.5 µg/mL (≈ 1.11 µM)
MIC [4]: 0.125 µg/mL
IC50 [5]: 1.8 ± 1.3 µM

Reference: PMC12624743 (ACS Infectious Diseases, 2025)
